Source: ChEMBL document CHEMBL1154622, “Structure-guided design of potent and selective pyrimidylpyrrole inhibitors of extracellular signal-regulated kinase (ERK) using conformational control” (J Med Chem, 2009)
Converted amounts (≈) assume the structure as drawn.

What was measured:
[1] = target: Tyrosine-protein kinase Yes (Homo sapiens) (UniProt P07947); assay: Inhibition of YES at 1 uM
[2] = Half life in mouse at 33 mg/kg, po; type: ADME, organism-based; set-up: dose 33 mg/kg, route oral; conditions: in vivo
[3] = Plasma concentration in mouse at 33 mg/kg, po after 4 hrs; type: ADME, organism-based; set-up: dose 33 mg/kg, route oral
[4] = Plasma concentration in mouse at 33 mg/kg, po after 8 hrs; type: ADME, organism-based; set-up: dose 33 mg/kg, route oral
[5] = target: Receptor-type tyrosine-protein kinase FLT3 (Homo sapiens, UniProt P36888); assay: Inhibition of FLT3
[6] = target: Rho-associated protein kinase 1 (Homo sapiens, UniProt Q13464); assay: Inhibition of ROCK1
[7] = target: Proto-oncogene tyrosine-protein kinase Src (Homo sapiens, UniProt P12931); assay: Inhibition of SRC
[8] = target: Interleukin-1 receptor-associated kinase 4 (Homo sapiens, UniProt Q9NWZ3); assay: Inhibition of IRAK4
[9] = target: Citron Rho-interacting kinase (Homo sapiens, UniProt O14578); assay: Inhibition of CIT
[10] = target: Interleukin-1 receptor-associated kinase 1 (Homo sapiens, UniProt P51617); assay: Inhibition of IRAK1
[11] = target: Mitogen-activated protein kinase kinase kinase 10 (Homo sapiens, UniProt Q02779); assay: Inhibition of MLK2
[12] = target: Serine/threonine-protein kinase TBK1 (Homo sapiens, UniProt Q9UHD2); assay: Inhibition of NAK
[13] = target: RAC-alpha serine/threonine-protein kinase (Homo sapiens) (UniProt P31749); assay: Inhibition of AKT1 at 1 uM
[14] = target: 5'-AMP-activated protein kinase catalytic subunit alpha-2 (Homo sapiens) (UniProt P54646); assay: Inhibition of AMPK at 2 uM
[15] = target: Tyrosine-protein kinase Blk (Homo sapiens) (UniProt P51451); assay: Inhibition of BLK at 2 uM
[16] = target: Cytoplasmic tyrosine-protein kinase BMX (Homo sapiens) (UniProt P51813); assay: Inhibition of BMX at 1 uM
[17] = target: Tyrosine-protein kinase BTK (Homo sapiens) (UniProt Q06187); assay: Inhibition of BTK at 1 uM
[18] = target: Death-associated protein kinase 1 (Homo sapiens) (UniProt P53355); assay: Inhibition of DAPK1 at 1 uM
[19] = target: Dual specificity tyrosine-phosphorylation-regulated kinase 1A (Homo sapiens) (UniProt Q13627); assay: Inhibition of DYRK1A at 1 uM
[20] = target: Epidermal growth factor receptor (Homo sapiens) (UniProt P00533); assay: Inhibition of EGFR at 1 uM
[21] = target: Fibroblast growth factor receptor 1 (Homo sapiens) (UniProt P11362); assay: Inhibition of FGFR1 at 1 uM
[22] = target: Fibroblast growth factor receptor 4 (Homo sapiens) (UniProt P22455); assay: Inhibition of FGFR4 at 1 uM
[23] = target: Tyrosine-protein kinase Fyn (Homo sapiens) (UniProt P06241); assay: Inhibition of FYN at 2 uM
[24] = target: Tyrosine-protein kinase HCK (Homo sapiens) (UniProt P08631); assay: Inhibition of HCK at 1 uM
[25] = target: Insulin-like growth factor 1 receptor (Homo sapiens) (UniProt P08069); assay: Inhibition of IGF1R at 1 uM
[26] = target: Mitogen-activated protein kinase 9 (Homo sapiens) (UniProt P45984); assay: Inhibition of JNK2 at 2 uM
[27] = target: Mast/stem cell growth factor receptor Kit (Homo sapiens) (UniProt P10721); assay: Inhibition of KIT at 1 uM
[28] = target: Tyrosine-protein kinase Lck (Homo sapiens) (UniProt P06239); assay: Inhibition of LCK at 2 uM
[29] = target: Tyrosine-protein kinase Lyn (Homo sapiens) (UniProt P07948); assay: Inhibition of LYN at 2 uM
[30] = target: Mitogen-activated protein kinase kinase kinase kinase 4 (Homo sapiens) (UniProt O95819); assay: Inhibition of MAP4K4 at 1 uM
[31] = target: MAP kinase-activated protein kinase 3 (Homo sapiens) (UniProt Q16644); assay: Inhibition of MAPKAPK3 at 1 uM
[32] = target: Misshapen-like kinase 1 (Homo sapiens) (UniProt Q8N4C8); assay: Inhibition of MINK at 1 uM
[33] = target: Dual specificity mitogen-activated protein kinase kinase 7 (Homo sapiens) (UniProt O14733); assay: Inhibition of MKK7 at 2 uM
[34] = target: Ribosomal protein S6 kinase alpha-5 (Homo sapiens) (UniProt O75582); assay: Inhibition of MSK1 at 1 uM
[35] = target: Serine/threonine-protein kinase 4 (Homo sapiens) (UniProt Q13043); assay: Inhibition of MST1 at 1 uM
[36] = target: Mitogen-activated protein kinase 13 (Homo sapiens) (UniProt O15264); assay: Inhibition of P38delta at 2 uM
[37] = target: Mitogen-activated protein kinase 12 (Homo sapiens) (UniProt P53778); assay: Inhibition of P38gamma at 2 uM
[38] = target: Serine/threonine-protein kinase PAK 1 (Homo sapiens) (UniProt Q13153); assay: Inhibition of PAK1 at 1 uM
[39] = target: Serine/threonine-protein kinase PAK 2 (Homo sapiens) (UniProt Q13177); assay: Inhibition of PAK2 at 1 uM
[40] = target: PAS domain-containing serine/threonine-protein kinase (Homo sapiens) (UniProt Q96RG2); assay: Inhibition of PASK at 1 uM
[41] = target: Serine/threonine-protein kinase pim-1 (Homo sapiens) (UniProt P11309); assay: Inhibition of PIM1 at 1 uM
[42] = target: Protein kinase C alpha type (Homo sapiens) (UniProt P17252); assay: Inhibition of PKCalpha at 2 uM
[43] = target: Protein kinase C gamma type (Homo sapiens) (UniProt P05129); assay: Inhibition of PKCgamma at 2 uM
[44] = target: Protein kinase C theta type (Homo sapiens) (UniProt Q04759); assay: Inhibition of PKCtheta at 2 uM
[45] = target: cAMP-dependent protein kinase catalytic subunit PRKX (Homo sapiens) (UniProt P51817); assay: Inhibition of PRKX at 1 uM
[46] = target: Protein-tyrosine kinase 2-beta (Homo sapiens) (UniProt Q14289); assay: Inhibition of PYK2 at 1 uM
[47] = Distribution coefficient, log D of the compound; type: physicochemical; conditions: octanol/water
[48] = Solubility in pH 7.4 buffer; type: physicochemical
[49] = Clearance in rat at 3 mg/kg, iv; type: ADME, organism-based; set-up: dose 3 mg/kg, route intravenous; conditions: in vivo
[50] = AUC (0 to 8 hrs) in rat at 3 mg/kg, iv; type: ADME, organism-based; set-up: time < 8 hr, dose 3 mg/kg, route intravenous; conditions: plasma
[51] = Oral bioavailability in rat at 10 mg/kg; type: ADME, organism-based; conditions: in vivo
[52] = Half life in rat at 10 mg/kg, po; type: ADME, organism-based; set-up: dose 10 mg/kg, route oral; conditions: in vivo
[53] = Volume of distribution at steady state in mouse at 5 mg/kg, iv; type: ADME, organism-based; set-up: dose 5 mg/kg, route intravenous; conditions: in vivo, read-out: Vdss
HT-29 = assay: Antiproliferative activity against human HT-29 cells; type: functional, cell-based

Serine/threonine-protein kinase PAK 1 (Homo sapiens), sequence (Q13153 whole entry): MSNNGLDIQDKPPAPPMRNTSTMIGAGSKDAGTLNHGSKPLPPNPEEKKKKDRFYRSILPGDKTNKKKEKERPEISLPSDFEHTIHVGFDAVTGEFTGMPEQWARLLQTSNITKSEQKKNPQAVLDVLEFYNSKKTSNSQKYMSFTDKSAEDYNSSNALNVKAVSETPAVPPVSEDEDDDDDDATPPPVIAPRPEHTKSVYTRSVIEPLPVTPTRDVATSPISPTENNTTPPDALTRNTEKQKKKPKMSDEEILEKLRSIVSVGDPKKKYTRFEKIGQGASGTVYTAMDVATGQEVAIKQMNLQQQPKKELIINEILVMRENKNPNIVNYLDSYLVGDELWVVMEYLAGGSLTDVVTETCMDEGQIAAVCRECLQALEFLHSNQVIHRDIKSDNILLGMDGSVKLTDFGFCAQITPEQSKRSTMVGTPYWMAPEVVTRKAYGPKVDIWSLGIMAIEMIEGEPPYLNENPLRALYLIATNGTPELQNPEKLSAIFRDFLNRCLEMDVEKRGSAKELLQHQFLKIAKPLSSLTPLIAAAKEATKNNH
Rho-associated protein kinase 1, sequence (Q13464 whole entry): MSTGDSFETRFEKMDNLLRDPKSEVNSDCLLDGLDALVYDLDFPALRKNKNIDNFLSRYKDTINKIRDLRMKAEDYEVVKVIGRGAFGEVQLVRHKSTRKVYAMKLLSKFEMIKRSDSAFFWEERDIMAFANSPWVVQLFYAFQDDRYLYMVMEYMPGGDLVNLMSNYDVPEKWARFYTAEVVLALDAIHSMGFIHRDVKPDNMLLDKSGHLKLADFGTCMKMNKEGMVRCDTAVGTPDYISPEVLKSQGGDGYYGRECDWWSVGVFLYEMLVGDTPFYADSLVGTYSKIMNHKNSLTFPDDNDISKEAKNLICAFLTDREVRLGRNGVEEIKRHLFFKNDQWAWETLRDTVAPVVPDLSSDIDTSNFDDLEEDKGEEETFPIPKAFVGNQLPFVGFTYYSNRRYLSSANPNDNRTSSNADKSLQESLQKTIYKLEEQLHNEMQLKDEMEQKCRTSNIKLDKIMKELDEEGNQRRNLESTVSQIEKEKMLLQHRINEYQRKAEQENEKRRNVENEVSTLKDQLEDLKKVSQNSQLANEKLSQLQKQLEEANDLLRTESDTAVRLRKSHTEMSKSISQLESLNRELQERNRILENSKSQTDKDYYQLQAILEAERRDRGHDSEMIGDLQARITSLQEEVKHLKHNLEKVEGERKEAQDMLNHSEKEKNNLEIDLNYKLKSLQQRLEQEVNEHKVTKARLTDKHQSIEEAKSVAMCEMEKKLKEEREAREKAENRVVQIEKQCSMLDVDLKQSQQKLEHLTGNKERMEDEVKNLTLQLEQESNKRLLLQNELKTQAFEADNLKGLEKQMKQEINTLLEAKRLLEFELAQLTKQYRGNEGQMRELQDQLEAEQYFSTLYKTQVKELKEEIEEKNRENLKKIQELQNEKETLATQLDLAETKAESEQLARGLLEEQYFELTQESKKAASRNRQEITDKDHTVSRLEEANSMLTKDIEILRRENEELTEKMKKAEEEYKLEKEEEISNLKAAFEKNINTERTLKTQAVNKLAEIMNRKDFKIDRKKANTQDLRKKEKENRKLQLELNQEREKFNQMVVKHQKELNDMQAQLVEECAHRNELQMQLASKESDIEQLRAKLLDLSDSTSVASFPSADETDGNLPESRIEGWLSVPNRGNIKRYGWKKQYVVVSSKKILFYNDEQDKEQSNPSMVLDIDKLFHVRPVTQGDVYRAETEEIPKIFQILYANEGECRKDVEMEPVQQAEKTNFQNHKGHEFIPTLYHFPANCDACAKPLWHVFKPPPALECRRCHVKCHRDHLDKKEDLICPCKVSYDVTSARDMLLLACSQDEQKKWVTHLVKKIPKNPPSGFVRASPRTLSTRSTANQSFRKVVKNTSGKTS
Mitogen-activated protein kinase kinase kinase kinase 4 (Homo sapiens), sequence (O95819 2-1239 limits assumed): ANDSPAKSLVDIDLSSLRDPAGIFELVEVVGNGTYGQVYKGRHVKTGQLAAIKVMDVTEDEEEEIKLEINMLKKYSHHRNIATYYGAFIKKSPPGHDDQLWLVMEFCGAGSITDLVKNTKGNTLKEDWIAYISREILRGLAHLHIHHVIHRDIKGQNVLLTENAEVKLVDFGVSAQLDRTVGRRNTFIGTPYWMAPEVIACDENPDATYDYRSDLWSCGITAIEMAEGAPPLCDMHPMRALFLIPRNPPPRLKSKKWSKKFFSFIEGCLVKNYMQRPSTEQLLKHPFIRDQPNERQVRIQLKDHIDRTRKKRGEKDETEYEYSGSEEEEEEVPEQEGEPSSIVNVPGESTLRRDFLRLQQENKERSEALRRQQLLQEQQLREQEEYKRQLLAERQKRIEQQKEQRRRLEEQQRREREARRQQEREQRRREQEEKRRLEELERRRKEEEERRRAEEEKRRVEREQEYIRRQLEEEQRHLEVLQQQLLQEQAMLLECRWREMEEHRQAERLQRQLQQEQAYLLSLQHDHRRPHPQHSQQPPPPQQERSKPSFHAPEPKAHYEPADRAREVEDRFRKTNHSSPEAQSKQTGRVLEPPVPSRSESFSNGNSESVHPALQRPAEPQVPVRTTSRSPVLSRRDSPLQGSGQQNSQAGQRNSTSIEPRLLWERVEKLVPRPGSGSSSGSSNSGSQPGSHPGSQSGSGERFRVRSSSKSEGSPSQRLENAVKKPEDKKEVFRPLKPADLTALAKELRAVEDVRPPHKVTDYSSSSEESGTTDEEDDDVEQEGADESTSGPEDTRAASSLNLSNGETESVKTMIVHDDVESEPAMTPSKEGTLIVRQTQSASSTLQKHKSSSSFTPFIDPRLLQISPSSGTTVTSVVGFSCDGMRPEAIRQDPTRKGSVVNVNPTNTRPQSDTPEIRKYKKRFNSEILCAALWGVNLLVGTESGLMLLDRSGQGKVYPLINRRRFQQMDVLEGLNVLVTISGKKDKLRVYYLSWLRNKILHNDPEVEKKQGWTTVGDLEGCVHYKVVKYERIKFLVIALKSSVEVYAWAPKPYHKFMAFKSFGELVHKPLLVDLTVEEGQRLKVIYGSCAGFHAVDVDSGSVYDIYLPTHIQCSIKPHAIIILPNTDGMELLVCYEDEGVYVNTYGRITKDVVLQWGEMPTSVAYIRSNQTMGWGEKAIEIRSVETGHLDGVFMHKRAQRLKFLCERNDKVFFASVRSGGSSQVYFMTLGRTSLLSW
Tyrosine-protein kinase Lck (Homo sapiens), sequence (P06239 2-509 limits assumed): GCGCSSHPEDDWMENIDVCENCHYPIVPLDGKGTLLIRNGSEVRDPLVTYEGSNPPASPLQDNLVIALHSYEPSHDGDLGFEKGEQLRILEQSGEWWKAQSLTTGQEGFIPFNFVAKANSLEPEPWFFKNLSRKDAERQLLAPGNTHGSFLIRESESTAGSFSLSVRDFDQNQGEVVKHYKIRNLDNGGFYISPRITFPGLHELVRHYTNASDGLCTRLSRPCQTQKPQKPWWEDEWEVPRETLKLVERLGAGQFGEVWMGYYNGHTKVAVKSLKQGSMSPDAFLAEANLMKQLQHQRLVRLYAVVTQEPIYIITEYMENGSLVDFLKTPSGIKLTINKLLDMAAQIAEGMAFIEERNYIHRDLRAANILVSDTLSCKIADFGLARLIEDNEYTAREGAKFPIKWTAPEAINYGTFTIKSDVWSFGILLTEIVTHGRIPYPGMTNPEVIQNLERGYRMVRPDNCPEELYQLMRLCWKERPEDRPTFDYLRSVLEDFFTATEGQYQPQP
Tyrosine-protein kinase HCK (Homo sapiens), sequence (P08631 2-526 limits assumed): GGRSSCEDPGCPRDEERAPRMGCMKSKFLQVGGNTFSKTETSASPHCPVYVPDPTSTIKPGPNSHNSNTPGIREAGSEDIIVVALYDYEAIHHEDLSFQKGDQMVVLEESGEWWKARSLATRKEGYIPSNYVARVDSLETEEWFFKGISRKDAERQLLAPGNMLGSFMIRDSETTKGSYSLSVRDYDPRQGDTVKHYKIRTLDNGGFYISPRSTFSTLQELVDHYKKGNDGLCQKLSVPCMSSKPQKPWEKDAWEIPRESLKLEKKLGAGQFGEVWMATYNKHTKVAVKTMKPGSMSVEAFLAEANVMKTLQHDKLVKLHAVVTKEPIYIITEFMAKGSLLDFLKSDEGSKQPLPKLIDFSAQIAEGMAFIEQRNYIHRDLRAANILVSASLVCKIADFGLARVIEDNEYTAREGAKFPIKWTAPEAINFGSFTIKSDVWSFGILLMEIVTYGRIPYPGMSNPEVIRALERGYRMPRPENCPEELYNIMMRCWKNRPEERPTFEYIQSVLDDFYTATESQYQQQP
Mitogen-activated protein kinase 12 (Homo sapiens), sequence (P53778 whole entry): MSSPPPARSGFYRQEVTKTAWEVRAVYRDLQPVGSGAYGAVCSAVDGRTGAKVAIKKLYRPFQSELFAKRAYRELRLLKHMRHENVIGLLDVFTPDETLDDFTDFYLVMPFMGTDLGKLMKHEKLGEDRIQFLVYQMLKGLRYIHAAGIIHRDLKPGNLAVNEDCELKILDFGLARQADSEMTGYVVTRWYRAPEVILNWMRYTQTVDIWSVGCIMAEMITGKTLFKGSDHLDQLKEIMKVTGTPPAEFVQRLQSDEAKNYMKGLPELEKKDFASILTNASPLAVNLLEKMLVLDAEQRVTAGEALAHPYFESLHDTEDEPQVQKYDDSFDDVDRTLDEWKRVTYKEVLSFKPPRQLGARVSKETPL
Mitogen-activated protein kinase 9 (Homo sapiens), sequence (P45984 whole entry, looked up): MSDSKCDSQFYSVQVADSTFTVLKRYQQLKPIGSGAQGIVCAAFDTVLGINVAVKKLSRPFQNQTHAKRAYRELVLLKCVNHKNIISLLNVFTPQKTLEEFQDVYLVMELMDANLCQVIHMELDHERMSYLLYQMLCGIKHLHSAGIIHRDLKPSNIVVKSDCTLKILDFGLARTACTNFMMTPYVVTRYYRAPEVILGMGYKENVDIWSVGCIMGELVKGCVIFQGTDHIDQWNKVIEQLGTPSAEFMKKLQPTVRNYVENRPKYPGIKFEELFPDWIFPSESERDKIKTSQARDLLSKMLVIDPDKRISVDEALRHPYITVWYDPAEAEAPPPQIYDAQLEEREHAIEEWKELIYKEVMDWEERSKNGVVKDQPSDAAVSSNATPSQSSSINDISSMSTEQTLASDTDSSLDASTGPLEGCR

Structure (SMILES): Cc1cnc(Nc2ccc(F)cc2Cl)nc1-c1c[nH]c(C(=O)N[C@H](CO)c2cccc(Cl)c2)c1
- inhibition [1]: 5%
- half-life [2]: 4.4 h
- concentration at 4 h [3]: 488 ng/mL
- concentration at 8 h [4]: 122 ng/mL
- Ki [5]: 1400 nM
- Ki [6]: 1400 nM
- Ki [7]: > 4000 nM
- Ki [8]: > 4000 nM
- Ki [9]: > 10000 nM
- Ki [10]: > 10000 nM
- Ki [11]: > 10000 nM
- Ki [12]: > 10000 nM
- inhibition [13]: 0%
- inhibition [14]: 5%
- inhibition [15]: 7%
- inhibition [16]: 3%
- inhibition [17]: 5%
- inhibition [18]: 2%
- inhibition [19]: 3%
- inhibition [20]: 6%
- inhibition [21]: 3%
- inhibition [22]: 0.3%
- inhibition [23]: 11%
- inhibition [24]: 3%
- inhibition [25]: 2%
- inhibition [26]: 43%
- inhibition [27]: 8%
- inhibition [28]: 3%
- inhibition [29]: 7%
- inhibition [30]: 18%
- inhibition [31]: 5%
- inhibition [32]: 18%
- inhibition [33]: 6%
- inhibition [34]: 7%
- inhibition [35]: 4%
- inhibition [36]: 54%
- inhibition [37]: 56%
- inhibition [38]: 3%
- inhibition [39]: 0%
- inhibition [40]: 19%
- inhibition [41]: 0%
- inhibition [42]: 12%
- inhibition [43]: 11%
- inhibition [44]: 17%
- inhibition [45]: 3%
- inhibition [46]: 6%
- logD [47]: 4.3
- solubility [48]: 10 µM (≈ 5 µg/mL)
- clearance [49]: 24 mL/min/kg
- AUC(0-t) at 8 h [50]: 1600 ng·h/mL
- bioavailability [51]: 65%
- half-life [52]: 3 h
- Vd [53]: 5.6 L/kg
- IC50 (HT-29): 48 nM
